Test results published in US20250340543A1, “GPR84 ANTAGONISTS AND USES THEREOF” (Liminal BioSciences Limited, priority 2021, published 2025).

molecular target: GPR84 (Homo sapiens (Human), UniProt Q9NQS5); test: Gai biosensor BRET assay (GPR84-mediated activation of Gai, antagonist mode against agonist ZQ-16); format: cell-based; details: HEK293 cells, 200 nmol/L GPR84 agonist ZQ-16, read-out: hGPR84 IC50
Description: Background—The following assays can be used for determination of GPR84 activation in living HEK293 cells. […] The Gai biosensor consists of a Rluc8-tagged Gαi2 subunit, a GFP10-tagged Gγ2 subunit, and an untagged Gβ1. […] Moreover, signaling functions of GPCRs are tightly regulated by endocytosis, the targeting of receptors to endosomes and their sorting to lysosomes or recycling to the plasma membrane. […] Agonist stimulation of GPR84—Rluc8 leads to trafficking of the receptor to EEs, and ensuing increase of the donor concentration relative to the rGFP-FYVE acceptor anchored in the same cellular compartment, and thus results in an increase in BRET signal.
Plasmids—The cDNA clones for human GPR84 receptor, human Gαi2, Gβ1, and Gγ2 were obtained from the cDNA Resource Center (www.cdna.org). GFP10 (F64L, S147P, S202F and H231L variant of Aequorea victoria Green Fluorescent Protein) gBlocks gene fragments (Integrated DNA Technologies, IA) and linker were inserted in frame at the N-terminus of human Gγ2. Rluc8 (A55T, C124A, S130A, K136R, A143M, M185V, M253L, and S287L variant of the Renilla renformis luciferase) gBlocks gene fragment was inserted with linkers in frame in between residues 91 and 92 of Gαi2 or at the C-terminus of GPR84. The FYVE domain from human endofin (residues Q739 to K806) attached in frame at the C terminus of a humanized Renilla GFP (rGFP), were synthesized as gBlocks gene fragments.
Bioluminescence Resonance Energy Transfer (BRET) Measurement—HEK293 cells were transfected with GPR84—Rluc8 and rGFP-FYVE for the EEs trafficking biosensor or with GPR84, Gαi2—Rluc8, GFP10-Gγ2, and Gβ1 for the Gai biosensor. The following day, transiently transfected cells were seeded in 96-well white clear bottom microplates coated with poly-D-lysine and left in culture for 24 hours. Cells were washed once with Tyrode's buffer (140 mmol/L NaCl, 1 mmol/L CaCl2, 2.7 mmol/L KCl, 0.49 mmol/L MgCl2, 0.37 mmol/L NaH2PO4, 5.6 mmol/L glucose, 12 mmol/L NaHCO3, and 25 mmol/L HEPES, pH 7.5) before performing assays in Tyrode's buffer. Test compounds were incubated with cells for 5 (Gai) or 15 (EEs) minutes at 37° C. before addition of 200 nmol/L of the GPR84 agonist ZQ-16 (2-(Hexylthio)-6-hydroxy-4(3H)-pyrimidinone) for 5 minutes at room temperature (Gai) or 30 minutes at 37° C. (EEs). The Rluc8 substrate coelenterazine 400A (Prolume, Lakeside, AZ) was added at a final concentration of […] and BRET readings were collected using an Infinite M1000 microplate reader (Tecan, Morrisville, NC). BRET^2 readings between Rluc8 and GFP10 or rGFP were collected by sequential integration of the signals detected in the 370 to 450 nm (Rluc8) and 510 to 540 nm (GFP10, rGFP) windows. The BRET signal was calculated as the ratio of light emitted by acceptor (GFP10, rGFP) over the light emitted by donor (Rluc8). The values were corrected to net BRET by subtracting the background BRET signal obtained in cells transfected with Rluc8 constructs alone. Ligand-promoted net BRET values were calculated by subtracting vehicle-induced net BRET from ligand-induced net BRET.

Chain of GPR84 (Q9NQS5 whole entry): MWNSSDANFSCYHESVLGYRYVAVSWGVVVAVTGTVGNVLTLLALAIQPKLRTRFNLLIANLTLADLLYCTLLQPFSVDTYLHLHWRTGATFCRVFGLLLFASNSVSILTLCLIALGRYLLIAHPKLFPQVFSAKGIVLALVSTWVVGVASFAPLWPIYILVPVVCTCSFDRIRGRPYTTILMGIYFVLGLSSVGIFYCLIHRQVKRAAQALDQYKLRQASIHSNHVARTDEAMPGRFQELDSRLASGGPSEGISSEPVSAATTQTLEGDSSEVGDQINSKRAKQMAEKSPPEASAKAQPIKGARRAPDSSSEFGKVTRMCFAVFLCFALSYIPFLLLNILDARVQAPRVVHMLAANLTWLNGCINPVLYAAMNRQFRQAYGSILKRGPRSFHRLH

IC50 [µM]	SMILES
< 5	Cc1cc(OCC2COCCO2)cc(=O)n1C(C)c1ccc(C#CC2CC2)cc1 (stereo not drawn) [Compound I-1]
< 5	Cc1cc(OCc2cnccn2)cc(=O)n1[C@H](C)c1ccc(C#CC2CC2)cc1 [Compound I-257]
< 5	Cc1cc(OCc2nccn2C)cc(=O)n1C(C)c1ccc(C#CC2CC2)c(F)c1 (stereo not drawn) [Compound I-361]

More lines, now with the values behind:

SMILES	IC50 [µM]
Cc1cc(OCc2ncccn2)cc(=O)n1[C@@H](C)c1ccc(C#CC2CC2)c(F)c1 [Compound I-326]	10 to 15
Cc1cc(OCc2cccnc2)cc(=O)n1[C@H](C)c1ccc(C#CC2CC2)cc1 [Compound I-272]	< 5
Cc1cc(OCc2ccccn2)cc(=O)n1[C@H](C)c1ccc(C#CC2CC2)cc1 [Compound I-290]	< 5
Cc1cc(OCc2ncccn2)cc(=O)n1C(CC(F)(F)F)c1ccc(C#CC2CC2)cc1 (stereo not drawn) [Compound I-324]	< 5
Cc1cc(OCc2ncccc2F)cc(=O)n1[C@H](C)c1ccc(C#CC2CC2)cc1 [Compound I-278]	< 5
Cc1cc(OCc2ccnn2C)cc(=O)n1[C@H](C)c1ccc(C#CC2CC2)cc1 [Compound I-351]	< 5

same assay, conditions: compound tested at 1 μM (concentration code A*)

inhibition at 1 µM [%]	SMILES
25 to 50	Cc1cc(OCc2ncccn2)cc(=O)n1[C@@H](C)c1ccc(C#CC2CC2)c(F)c1 [Compound I-326]

same assay, conditions: compound tested at 2 μM (concentration code A)

inhibition at 2 µM [%]	SMILES
> 75	Cc1cc(OCc2cnccn2)cc(=O)n1[C@H](C)c1ccc(C#CC2CC2)cc1 [Compound I-257]
< 25	Cc1ccc(C#CC2CC2)cc1Cn1c(C)cc(OCc2ncccn2)cc1=O [Compound I-289]
> 75	Cc1cc(OCc2nccn2C)cc(=O)n1C(C)c1ccc(C#CC2CC2)c(F)c1 (stereo not drawn) [Compound I-361]

Continued, compound first:

SMILES	inhibition at 2 µM [%]
Cc1cc(OCc2cccnc2)cc(=O)n1[C@H](C)c1ccc(C#CC2CC2)cc1 [Compound I-272]	> 75
Cc1cc(OCc2ccccn2)cc(=O)n1[C@H](C)c1ccc(C#CC2CC2)cc1 [Compound I-290]	> 75
Cc1cc(OCc2cocn2)cc(=O)n1[C@H](C)c1ccc(C#CC2CC2)cc1 [Compound I-284]	> 75
Cc1cc(OCc2ncccc2F)cc(=O)n1[C@H](C)c1ccc(C#CC2CC2)cc1 [Compound I-278]	> 75

same assay, conditions: compound tested at 5 μM (concentration code C)

inhibition at 5 µM [%]	SMILES
< 25	Cc1ccc(-c2ccc(-c3ccc4oc(=O)n(CC5CCCCO5)c4c3)cc2)cn1 (stereo not drawn) [Compound I-168]

same assay, conditions: compound tested at 10 μM (concentration code D)

inhibition at 10 µM [%]	SMILES
< 25	Cc1cc(OCc2ncccn2)cc(=O)n1Cc1cccc(C#CCNc2ccccc2)c1 [Compound I-280]
< 25	Cc1cc(OCC2COCCO2)cc(=O)n1Cc1cccc(OCC(F)(F)F)c1 (stereo not drawn) [Compound I-114]
25 to 50	CC1(C)CN(c2cccc(Cn3ccc(OCc4ncccn4)cc3=O)c2)C1 [Compound I-248]
< 25	Cc1nc(OCc2ccc(C#CC3CC3)cc2C)cc(OCC2COCCO2)n1 (stereo not drawn) [Compound I-23]
< 25	Cc1cc(OCC2COCCO2)cc(=O)n1Cc1cccc(C#CC(C)(C)C)c1 (stereo not drawn) [Compound I-96]
25 to 50	Cc1cc(OCC2CCOCC2)cc(=O)n1[C@H](C)c1ccc(C#CCO)cc1 (stereo in doubt) [Compound I-61]
< 25	Cc1cc(OCC2COCCO2)cc(=O)n1C(C)c1ccc(C#CCNc2ccccc2)cc1 (stereo not drawn) [Compound I-117]
> 75	Cc1cc(N(C)Cc2ncccn2)cc(=O)n1[C@H](C)c1ccc(C#CC2CC2)cc1 [Compound I-372]
25 to 50	Cc1cc(OCc2ncccn2)cc(=O)n1[C@H](C)c1ccc(CCC2CC2)cc1 [Compound I-310]
> 75	Cc1cc(OCc2ncccn2)cc(=O)n1[C@H](C)c1ccc(C#CC2CCC2)cc1 [Compound I-314]
> 75	Cc1cc(OCc2cn(C)cn2)cc(=O)n1[C@H](C)c1ccc(C#CC2CC2)cc1 [Compound I-313]
< 25	Cc1ccc([C@@H](C)n2c(C)cc(OCc3ncccn3)cc2=O)cc1 [Compound I-299]
> 75	Cc1cc(OCc2ncccn2)cc(=O)n1[C@H](C)Cc1ccc(C#CC2CC2)cc1 (stereo in doubt) [Compound I-276]

The remaining lines, values behind:

SMILES	inhibition at 10 µM [%]
Cc1cc(OCC2Oc3ccccc3O2)cc(=O)n1[C@H](C)c1ccc(C#CC2CC2)cc1 [Compound I-230]	< 25
Cc1cc(OC[C@H]2COCCO2)cc(=O)n1Cc1ccc(N2CC(C)(C)C2)cc1 [Compound I-116]	< 25
Cc1cc(OCC2COCCO2)cc(=O)n1C(C)c1ccc(C#CC2CC2)s1 (stereo not drawn) [Compound I-220]	< 25
CCCCCc1ccc([C@@H](C)n2c(C)cc(OCc3ncccn3)cc2=O)cc1 [Compound I-309]	< 25
Cc1cc(OC[C@H]2CCCCO2)cc(=O)n1[C@H](C)c1ccc(C#CC2CC2)cc1 [Compound I-145]	> 75
COc1cnc(COc2cc(C)n([C@H](C)c3ccc(C#CC4CC4)cc3)c(=O)c2)nc1 [Compound I-247]	> 75
Cc1cc([C@@H](C)n2c(C)cc(OCc3ncccn3)cc2=O)ccc1C#CC1CC1 [Compound I-373]	> 75
O=C(CC1CCCCO1)N1CCc2cc(C#CC3CC3)ccc2C1 (stereo not drawn) [Compound I-187]	25 to 50
CCC(c1ccc(C#CC2CC2)cc1)n1c(C)cc(OCC2COCCO2)cc1=O (stereo not drawn) [Compound I-21]	50 to 75
Cc1cc(OCc2ncccn2)cc(=O)n1C(CC(F)(F)F)c1ccc(C#CC2CC2)cc1 (stereo not drawn) [Compound I-324]	> 75
Cc1cc(OCc2ccccn2)ccc1-c1cc(OCC2COc3ncccc3O2)cc(=O)[nH]1 (stereo not drawn) [Compound I-48]	25 to 50
Cc1cc(OCc2ncccn2)cc(=O)n1-c1ccc(C#CC2CC2)cc1 [Compound I-244]	< 25
Cc1cc(OCc2ncccn2)cc(=O)n1Cc1cc(C#CC2CC2)ccc1F [Compound I-268]	< 25
Cc1cc(OCc2ncccn2)cc(=O)n1C(C)c1ccc(OCC(F)(F)F)cc1 (stereo not drawn) [Compound I-275]	< 25
Cn1c(-c2ccc(C#CC3CC3)cc2)cc(=O)n(C[C@H]2COCCO2)c1=O [Compound I-122]	< 25
Cc1cc(OCc2ncccn2)cc(=O)n1[C@H](C)c1ccc(Cl)cc1 [Compound I-304]	< 25
Cc1cc(OC[C@H]2COc3ncccc3O2)cc(=O)n1Cc1cccc(C#CC2CC2)c1 [Compound I-118]	< 25
Cc1cc(OCC2COCCO2)cc(=O)n1C(C)c1cccc(C#CC2CC2)c1 (stereo not drawn) [Compound I-88]	< 25
Cc1cc(OCc2ccnn2C)cc(=O)n1[C@H](C)c1ccc(C#CC2CC2)cc1 [Compound I-351]	> 75

same assay, conditions: compound tested at 25 μM (concentration code G)

inhibition at 25 µM [%]	SMILES
> 75	Cc1cc(OCC2COCCO2)cc(=O)n1C(C)c1ccc(C#CC2CC2)cc1 (stereo not drawn) [Compound I-1]
< 25	O=c1oc2ccc(-c3ccc(C#CC4CC4)cc3)cc2n1CC1COCCO1 (stereo not drawn) [Compound I-169]
< 25	Cc1cc(OCC2COCCO2)cc(=O)n1Cc1cccc(OCc2ccccn2)c1 (stereo not drawn) [Compound I-63]
< 25	C(#CC1CC1)c1ccc(-c2cc(OCC3CCCCO3)ncn2)cc1 (stereo not drawn) [Compound I-54]

Second part, the compound before the results:

SMILES	inhibition at 25 µM [%]
Cc1cc(OCC(F)(F)F)ccc1-c1cccc(OCC2COCCO2)n1 (stereo not drawn) [Compound I-33]	25 to 50
Cc1nc(OCC2COCCO2)cc(=O)n1Cc1ccc(C#CC2CC2)cc1 (stereo not drawn) [Compound I-34]	25 to 50
Cc1ccc(-c2ccc3c(c2)CCN(C(=O)CC2CCCCO2)C3)cn1 (stereo not drawn) [Compound I-203]	25 to 50
CCc1cc(OCC2COCCO2)cc(OCc2ccc(C#CC3CC3)cc2)n1 (stereo not drawn) [Compound I-72]	< 25
Cc1ccc(-c2ccc(-c3nc(OCC4COCCO4)cc(=O)[nH]3)cc2)cn1 (stereo not drawn) [Compound I-139, 6-((1,4-dioxan-2-yl)methoxy)-2-(4-(6-methylpyridin-3-yl)phenyl)pyrimidin-4(3H)-one]	< 25
FC(F)(F)COc1ccc(-c2cncc(OCC3COCCO3)c2)cc1 (stereo not drawn) [Compound I-53]	25 to 50
Cc1ccc(-c2ccc(-c3cc(OCC4COCCO4)cc(Cl)n3)c(C)c2)cn1 (stereo not drawn) [Compound I-93]	< 25
FC(F)(F)COc1ccc(-c2cc(OCC3COCCO3)cc(C(F)(F)F)c2)cc1 (stereo not drawn) [Compound I-165]	< 25
[O-][n+]1cc(OCC2COCCO2)cc(-c2ccc(OCC(F)(F)F)cc2)c1 (stereo not drawn) [Compound I-59]	25 to 50
CN(C)C(=O)c1cc(OCC2COCCO2)cc(-c2ccc(OCC(F)(F)F)cc2)c1 (stereo not drawn) [Compound I-162]	< 25
Cc1ccc(-c2ccc(-c3nccc(OCC4CCCCO4)n3)cc2)cn1 (stereo not drawn) [Compound I-133]	< 25
Cc1ccc(-c2ccc(-c3cc(OCC4COCCO4)cc(Cl)n3)cc2)cn1 (stereo not drawn) [Compound I-105]	< 25
